Test results published in patent publication US20060211698A1, “Bicyclic heteroaryl derivatives for treating viruses” (Genelabs, Inc., priority 2005, published 2006).

Biological target: T1, HCV-NS5b (Hepatitis C virus genotype 1b, UniProt Q9WMX2)
T1 construct: The cloned fragment was missing the C terminus 21 amino acid residues; (His)6 (C); made in house; host or cells: XL-1 cells (E. coli)
Experiment: HCV-NS5b Enzyme Assay
Type: biochemical
Conditions: 1 μM test compound; incorporation of [3H]-UTP, 37° C., 2 hours
Description: The coding sequence of NS5b protein was cloned by PCR from pFKI389luc/NS3-3′/ET as described by Lohmann, V., et al. (1999) Science 285, 110-113 using the following primers: • […] (SEQ. ID. NO. 1) • […] (SEQ. ID. NO. 2)
The cloned fragment was missing the C terminus 21 amino acid residues. The cloned fragment is inserted into an IPTG-inducible expression plasmid that provides an epitope tag (His)6 at the carboxy terminus of the protein.
The recombinant enzyme was expressed in XL-1 cells and after induction of expression, the protein was purified using affinity chromatography on a nickel-NTA column. Storage condition is 10 mM Tris-HCl pH 7.5, 50 mM NaCl, 0.1 mM EDTA, 1 mM DTT, 20% glycerol at −20° C.
The polymerase activity was assayed by measuring incorporation of radiolabeled UTP into a RNA product using a biotinylated, heteropolymeric template, which includes a portion of the HCV genome. Typically, the assay mixture […] contains 10 mM Tris-HCl (pH 7.5), 5 mM MgCl2, 0.2 mM EDTA, 10 mM KCl, 1 unit/μL RNAsin. 1 mM DTT, 10 μM each of NTP, including [^3H]-UTP, and 10 ng/μL biotinylated heteropolymeric template. 20× test compound in 2 μl's was then added as a 100% DMSO solution to achieve a final DMSO concentration of 5%. For IC50 determination a 10-point dose response was used. The compounds were serial diluted 2-fold […]. Typically for IC50's, compounds were tested starting at 50 uM or 2 μm depending on the potency. Reactions were started with addition of 10×NS5B in 4 μl's and allowed to incubate at 37° C. for 2 hours. Reactions were quenched with 8 μL of 100 mM EDTA and reaction mixtures (30 μL) were transferred to streptavidin-coated scintillation proximity microtiter plates (FlashPlates) and incubated at 4° C. overnight. Incorporation of radioactivity was determined by scintillation counting (cpm). The % Inhibition at a particular concentration was determined using the following equation, % Inhibition=100−[100*(cpm with inhibitor−bg)/(cpm with no inhibitor−bg)] where bg was the background with no enzyme.

Row | SMILES | inhibition at 1 µM [%] | % inhibition @ 1 μM [%]
1 | Cc1ccsc1-c1ccc2cc(-c3c(C4CCCCC4)c4ccc(C(=O)O)cc4n3CC(=O)N3CCOCC3)ccc2n1 [Compound 229, 3-Cyclohexyl-2-[2-(3-methyl-thiophen-2-yl)-quinolin-6-yl]-1-(2-morpholin-4-yl-2-oxo-ethyl)-1H-indole-6-carboxylic acid] | 96.5 | –
2 | O=C(O)c1ccc2c(C3CCCCC3)c(-c3ccc(-c4ccc(Cl)s4)cc3)n(CC(=O)N3CCOCC3)c2c1 [Compound 318, 2-[4-(5-Chloro-thiophen-2-yl)-phenyl]-3-cyclohexyl-1-(2-morpholin-4-yl-2-oxo-ethyl)-1H-indole-6-carboxylic acid] | 98.1 | –
3 | O=C(O)c1ccc2c(C3CCCCC3)c(-c3ccc4nc(-c5cccc(Br)c5)ccc4c3)n(CC(=O)N3CCOCC3)c2c1 [Compound 262, 2-[2-(3-Bromo-phenyl)-quinolin-6-yl]-3-cyclohexyl-1-(2-morpholin-4-yl-2-oxo-ethyl)-1H-indole-6-carboxylic acid] | 97.3 | –
4 | Cc1nc(C)c(-c2ccc3cc(-c4c(C5CCCCC5)c5ccc(C(=O)NS(C)(=O)=O)cc5n4CC(=O)N4CCOCC4)ccc3n2)s1 [Compound 240, N-[3-Cyclohexyl-2-[2-(2,4-dimethyl-thiazol-5-yl)-quinolin-6-yl]-1-(2-morpholin-4-yl-2-oxo-ethyl)-1H-indole-6-carbonyl]-methanesulfonamide] | 97.7 | –
5 | Cc1nc(C)c(-c2ccc3cc(-c4c(C5CCCCC5)c5ccc(C(=O)NCCc6nnn[nH]6)cc5n4CC(=O)N4CCOCC4)ccc3n2)s1 [Compound 245, 3-Cyclohexyl-2-[2-(2,4-dimethyl-thiazol-5-yl)-quinolin-6-yl]-1-(2-morpholin-4-yl-2-oxo-ethyl)-1H-indole-6-carboxylic acid [2-(1H-tetrazol-5-yl)-ethyl]-amide] | 91.3 | –
6 | O=C(O)c1ccc2c(C3CCCCC3)c(-c3ccc(-c4ccc5cc(Br)ccc5n4)cc3)n(CC(=O)N3CCOCC3)c2c1 [Compound 298, 2-[4-(6-Bromo-quinolin-2-yl)-phenyl]-3-cyclohexyl-1-(2-morpholin-4-yl-2-oxo-ethyl)-1H-indole-6-carboxylic acid] | 101 | –
7 | Cc1nc(C)c(-c2ccc3cc(-c4c(C5CCCCC5)c5ccc(C(=O)O)cc5n4CC(=O)N4CCC(O)CC4)ccc3n2)s1 [Compound 236, 3-Cyclohexyl-2-[2-(2,4-dimethyl-thiazol-5-yl)-quinolin-6-yl]-1-[2-(4-hydroxy-piperidin-1-yl)-2-oxo-ethyl]-1H-indole-6-carboxylic acid] | 92.5 | –
8 | O=C(O)c1ccc2c(C3CCCCC3)c(-c3ccc4nc(-c5ccncc5)ccc4c3)n(CC(=O)N3CCOCC3)c2c1 [Compound 325, 3-Cyclohexyl-1-(2-morpholin-4-yl-2-oxo-ethyl)-2-(2-pyridin-4-yl-quinolin-6-yl)-1H-indole-6-carboxylic acid] | 93.6 | –
9 | COc1cc(OC)cc(-c2ccc3cc(-c4c(C5CCCCC5)c5ccc(C(=O)O)cc5n4CC(=O)N4CCOCC4)ccc3n2)c1 [Compound 251, 3-Cyclohexyl-2-[2-(3,5-dimethoxy-phenyl)-quinolin-6-yl]-1-(2-morpholin-4-yl-2-oxo-ethyl)-1H-indole-6-carboxylic acid] | 98.5 | –
10 | O=C(O)c1ccc2c(C3CCCCC3)c(-c3ccc4nc(-c5ccco5)ccc4c3)n(CC(=O)N3CCOCC3)c2c1 [Compound 222, 1-[N-morpholinocarbonylmethyl]-2-(2-furan-2-yl-quinolin-6-yl)-3-cyclohexyl-1H-indole-6-carboxylic acid] | – | 92.3
11 | O=C(O)c1ccc2c(C3CCCCC3)c(-c3ccc4nc(-c5cncs5)ccc4c3)n(CC(=O)N3CCOCC3)c2c1 [Compound 331, 3-Cyclohexyl-1-(2-morpholin-4-yl-2-oxo-ethyl)-2-(2-thiazol-5-yl-quinolin-6-yl)-1H-indole-6-carboxylic acid] | 97 | –
12 | Cc1nc(C)c(-c2ccc3cc(-c4c(C5CCCCC5)c5ccc(C(=O)O)cc5n4CC(=O)N4CCCC4C)ccc3n2)s1 (stereo not drawn) [Compound 277, 3-Cyclohexyl-2-[2-(2,4-dimethyl-thiazol-5-yl)-quinolin-6-yl]-1-[2-(2-methyl-pyrrolidin-1-yl)-2-oxo-ethyl]-1H-indole-6-carboxylic acid] | 96.3 | –
13 | Cc1nc(C)c(C2CCc3cc(-c4c(C5CCCCC5)c5ccc(C(=O)O)cc5n4CC(=O)N4CCOCC4)ccc3N2)s1 (stereo not drawn) [Compound 323, 3-Cyclohexyl-2-[2-(2,4-dimethyl-thiazol-5-yl)-1,2,3,4-tetrahydro-quinolin-6-yl]-1-(2-morpholin-4-yl-2-oxo-ethyl)-1H-indole-6-carboxylic acid] | 97.6 | –
14 | COc1cccc(-c2ccc3cc(-c4c(C5CCCCC5)c5ccc(C(=O)O)cc5n4CC(=O)N4CCOCC4)ccc3n2)c1 [Compound 221, 3-Cyclohexyl-2-[2-(3-methoxy-phenyl)-quinolin-6-yl]-1-(2-morpholin-4-yl-2-oxo-ethyl)-1H-indole-6-carboxylic acid] | 99.6 | –
15 | Cc1nc(C)c(-c2ccc3cc(-c4[nH]c5c(C)c(C(=O)O)ccc5c4C4CCCCC4)ccc3n2)s1 [Compound 334, 3-Cyclohexyl-2-[2-(2,4-dimethyl-thiazol-5-yl)-quinolin-6-yl]-7-methyl-1H-indole-6-carboxylic acid] | 86.9 | –
16 | Cc1nc(C)c(-c2ccc3cc(-c4c(C5CCCCC5)c5ccc(C(=O)O)cc5n4CC(=O)N(C)C)ccc3n2)s1 [Compound 212, 1-[N,N-dimethylaminocarbonyl-methyl]-2-[2-(2,4-dimethylthiazol-5-yl)-quinolin-6-yl]-3-cyclohexyl-1H-indole-6-carboxylic acid] | 96.8 | –
17 | COc1cccc(-c2ccc(-c3c(C4CCCCC4)c4ccc(C(=O)O)cc4n3CC(=O)N3CCOCC3)cc2)c1 [Compound 309, 3-Cyclohexyl-2-(3′-methoxy-biphenyl-4-yl)-1-(2-morpholin-4-yl-2-oxo-ethyl)-1H-indole-6-carboxylic acid] | 98.8 | –
18 | O=C(O)c1ccc2c(C3CCCCC3)c(-c3ccc(-c4cccc([N+](=O)[O-])c4)cc3)n(CC(=O)N3CCOCC3)c2c1 [Compound 310, 3-Cyclohexyl-2-(3′-nitro-biphenyl-4-yl)-1-(2-morpholin-4-yl-2-oxo-ethyl)-1H-indole-6-carboxylic acid] | 99.6 | –
19 | Cc1nc(C)c(-c2ccc3cc(-c4c(C5CCCCC5)c5ccc(C(=O)O)cc5n4Cc4ccncc4)ccc3n2)s1 [Compound 289, 3-Cyclohexyl-2-[2-(2,4-dimethyl-thiazol-5-yl)-quinolin-6-yl]-1-pyridin-4-ylmethyl-1H-indole-6-carboxylic acid] | 95.7 | –
20 | CCOc1ncc(-c2ccc3cc(-c4c(C5CCCCC5)c5ccc(C(=O)O)cc5n4CC(=O)N4CCOCC4)ccc3n2)c(C)n1 [Compound 269, 3-Cyclohexyl-2-[2-(2-ethoxy-4-methyl-pyrimidin-5-yl)-quinolin-6-yl]-1-(2-morpholin-4-yl-2-oxo-ethyl)-1H-indole-6-carboxylic acid] | 93.6 | –
21 | COc1ccc(-c2ccc3cc(-c4c(C5CCCCC5)c5ccc(C(=O)O)cc5n4CC(=O)N4CCOCC4)ccc3n2)cc1 [Compound 254, 3-Cyclohexyl-2-[2-(4-methoxy-phenyl)-quinolin-6-yl]-1-(2-morpholin-4-yl-2-oxo-ethyl)-1H-indole-6-carboxylic acid] | 96.9 | –
22 | O=C(O)c1ccc2c(C3CCCCC3)c(-c3ccc4nc(-c5ccc(-n6ccnc6)cc5)ccc4c3)n(CC(=O)N3CCOCC3)c2c1 [Compound 209, 1-[N-morpholinocarbonylmethyl]-2-[2-(4-(1H-imidazolyl)phenyl)-quinolin-6-yl]-3-cyclohexyl-1H-indole-6-carboxylic acid] | – | 98.5
23 | Nc1cccc(-c2ccc3cc(-c4c(C5CCCCC5)c5ccc(C(=O)O)cc5n4CC(=O)N4CCOCC4)ccc3n2)c1 [Compound 264, 2-[2-(3-Amino-phenyl)-quinolin-6-yl]-3-cyclohexyl-1-(2-morpholin-4-yl-2-oxo-ethyl)-1H-indole-6-carboxylic acid] | 93 | –
24 | Cc1nc(C)c(-c2ccc3cc(-c4c(C5CCCCC5)c5ccc(C(=O)O)cc5n4Cc4ccc(C(=O)O)cc4)ccc3n2)s1 [Compound 292, 1-(4-Carboxy-benzyl)-3-cyclohexyl-2-[2-(2,4-dimethyl-thiazol-5-yl)-quinolin-6-yl]-1H-indole-6-carboxylic acid] | 98.7 | –
